# Test system: rat liver mitochondria (RLM) membranes
# Experiment: RLM lipid peroxidation, TBARS assay (FeSO4/H2O2/ascorbate)
# Type: biochemical
# Conditions: 5 μM pre-incubation, FIG. 4A
# Description: In an embodiment, and as an example, AntiOxCINs antioxidant performance, on the protection of lipid peroxidation of RLM membranes was determined. Two different oxidative stressor agents, FeSO4/H2O2/ascorbate and ADP/FeSO4, and two end-points, TBARS production and oxygen-consumption, respectively, have been used. MitoQ was used as reference (FIGS. 4 and 5).
# In an embodiment, the evaluation of AntiOxCINs functional mitochondrial toxicity profile was performed in rat liver mitochondria (RLM). RLM were prepared by tissue homogenization followed by differential centrifugations in ice-cold buffer containing 250 mM sucrose, 10 mM HEPES (pH 7.4), 1 mM EGTA, and 0.1% fat-free bovine serum albumin. […] The protein concentration was determined by the biuret assay using BSA as a standard.
# In an embodiment, the effect of AntiOxCINs on RLM lipid peroxidation was measured by thiobarbituric acid reactive species (TBARS) assay as follows: RLM (2 mg protein/ml) were incubated in 0.8 mL medium containing 100 mM KCl, 10 mM Tris-HCl and pH 7.6, at 37° C., supplemented with 5 mM glutamate/2.5 mM malate as substrate. […] The fluorescence of aliquots (250 μL) of the organic layer was analyzed in a plate reader (λEx=515 nm; λEm=553 nm) for TBARS. […] Data are means±SEM of three independent experiments and are expressed as % of control (control=100%).
smiles,measurement,value
"CS(=O)(=O)[O-].O=C(/C=C/c1ccc(O)c(O)c1)NCCCCCC[P+](c1ccccc1)(c1ccccc1)c1ccccc1 [AntiOxCIN2, (E)-(6-(3-(3,4-dihydroxyphenyl)prop-2-enamido)hexyl)triphenylphosphonium methanesulfonate]",prevention of mitochondria lipid peroxidation (TBARS levels),most effective
